Experimental findings from PubChem BioAssay (NCI) are described below.

Several values for one entry are separate records, joined by “and”; a condition that tells them apart may be missing. Identical values can stand only once.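 Results reflect a 48-hour exposure of cells in 96-well plates to compound at five concentrations. GI50 is the concentration that inhibits growth by half. TGI marks complete inhibition of growth.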

Some test systems named below: CCRF-CEM leukemia; HCT-116 colon; HOP-62 NSCLC; MDA-MB-231 breast; NCI-H226 lung; SF-539 CNS; SK-MEL-2 melanoma; SK-OV-3 ovarian; SW-620 colon; UACC-257 melanoma; MALME-3M melanoma; NCI-H460 lung.
Assay in all cases: DTP human tumour cell line panel, 48 h

In the case of `CC1(C)C(CCO)CC1n1ccc(=O)[nH]c1=O` (stereo unspecified), the TGI in the assay with CCRF-CEM leukemia, in the assay with HCT-116 colon, with HOP-62 NSCLC, with MDA-MB-231 breast, in the assay on NCI-H226 lung and in the assay with SF-539 CNS was > 100 µM throughout. The TGI with SK-MEL-2 melanoma, with SK-OV-3 ovarian, in the assay on SW-620 colon and with UACC-257 melanoma was > 100 µM each time.

As for `CC(=O)NC1=C(NCCCl)C(=O)c2ccccc2C1=O`, the TGI (usually the concentration giving total growth inhibition) in the assay with CCRF-CEM leukemia is 66 µM; with HCT-116 colon it was 48.1 µM; in the assay with HOP-62 NSCLC, > 100 µM; in the assay with MALME-3M melanoma, 27.1 µM; in the assay with MDA-MB-231 breast, > 100 µM; in the assay with NCI-H226 lung, > 100 µM. For the same compound, the TGI with NCI-H460 lung is > 100 µM; in the assay with SF-539 CNS, > 100 µM; with SK-OV-3 ovarian, > 100 µM; in the assay on SW-620 colon it was > 100 µM; in the assay on UACC-257 melanoma, 33.7 µM.

Regarding `O=C1C=C2CCC[C@H]3OC(=O)C[C@@]23CC1`, the TGI in the assay on HCT-116 colon, in the assay on HOP-62 NSCLC, in the assay with MALME-3M melanoma, in the assay on MDA-MB-231 breast, in the assay with NCI-H226 lung and in the assay with NCI-H460 lung was > 100 µM throughout. Also, the TGI in the assay on SF-539 CNS, with SK-MEL-2 melanoma, in the assay on SK-OV-3 ovarian, in the assay with SW-620 colon and with UACC-257 melanoma was > 100 µM throughout.

`Cc1ccnc2nc(N)ccc12`: the TGI in the assay on CCRF-CEM leukemia, in the assay on HCT-116 colon, in the assay on MALME-3M melanoma, in the assay on MDA-MB-231 breast, in the assay with NCI-H226 lung and in the assay with NCI-H460 lung was > 100 µM each time. The TGI with SF-539 CNS, in the assay with SK-MEL-2 melanoma, with SK-OV-3 ovarian, with SW-620 colon and in the assay with UACC-257 melanoma was > 100 µM throughout.

Regarding `O=C1CC(C(OCc2ccccc2)C(OCc2ccccc2)C(COCc2ccccc2)OCc2ccccc2)CC(=O)N1` (stereo unspecified), in the assay with CCRF-CEM leukemia, the GI50 – broadly, the concentration giving 50% growth inhibition – is 19.4 µM and 64.4 µM. The TGI was 80.4 µM and > 75 µM in the assay with CCRF-CEM leukemia; > 100 µM with HCT-116 colon; > 100 µM in the assay with MALME-3M melanoma; > 100 µM in the assay with MDA-MB-231 breast; > 100 µM with NCI-H226 lung; > 100 µM with NCI-H460 lung. Moreover, the TGI in the assay on SF-539 CNS, in the assay on SW-620 colon and with UACC-257 melanoma was > 100 µM throughout.

For the compound `COC(=O)C(=O)C(C(=O)C(=O)Nc1cccc([N+](=O)[O-])c1)c1nc2ccc(Cl)cc2[nH]c1=O` (stereo unspecified), the TGI in the assay with CCRF-CEM leukemia, in the assay with HCT-116 colon, with HOP-62 NSCLC, in the assay with MDA-MB-231 breast, in the assay on NCI-H226 lung and with NCI-H460 lung was > 100 µM throughout. In addition, the concentration for total growth inhibition (TGI) with SF-539 CNS, with SK-MEL-2 melanoma, with SK-OV-3 ovarian, in the assay with SW-620 colon and in the assay with UACC-257 melanoma was > 100 µM in each case.

Take `CN(C(=O)c1ccc2c(c1)sc1c(=O)n(C)c3ccccc3c12)c1ccccc1`: the TGI with CCRF-CEM leukemia, in the assay on HCT-116 colon, in the assay on MALME-3M melanoma, in the assay with MDA-MB-231 breast, in the assay on NCI-H226 lung and in the assay with NCI-H460 lung was > 100 µM in each case. Also, the TGI with SF-539 CNS, in the assay with SK-MEL-2 melanoma, in the assay on SK-OV-3 ovarian, with SW-620 colon and with UACC-257 melanoma was > 100 µM throughout.

Turning to `Nc1cccc(S(=O)(=O)Nc2nnc(S(N)(=O)=O)s2)c1`, the TGI with HCT-116 colon, with HOP-62 NSCLC, in the assay with MALME-3M melanoma, in the assay with MDA-MB-231 breast, with NCI-H226 lung and in the assay with NCI-H460 lung was > 100 µM in each case. The TGI with SF-539 CNS, in the assay on SK-MEL-2 melanoma, in the assay with SK-OV-3 ovarian and with SW-620 colon was > 100 µM each time.

`CC(=O)OC1C2CCC3C(C)(O)C4CC(O)C(C)(C)C4(O)C(O)CC13CC2(C)O` (stereo unspecified): the TGI in the assay on CCRF-CEM leukemia, with HCT-116 colon, in the assay with HOP-62 NSCLC, in the assay on MDA-MB-231 breast, in the assay on NCI-H226 lung and in the assay with SF-539 CNS was > 100 µM in each case. Also, the TGI with SK-MEL-2 melanoma, in the assay on SK-OV-3 ovarian and in the assay on UACC-257 melanoma was > 100 µM each time.

Turning to `CCOC(=O)NNC(=O)NCc1ccccc1CNC(=O)NNC(=O)OCC`, the TGI with CCRF-CEM leukemia, with HCT-116 colon, in the assay on MALME-3M melanoma, in the assay on MDA-MB-231 breast, in the assay with NCI-H226 lung and in the assay with NCI-H460 lung was > 100 µM in each case. Further, the total growth inhibition concentration (TGI) with SF-539 CNS, with SK-MEL-2 melanoma, with SK-OV-3 ovarian, with SW-620 colon and with UACC-257 melanoma was > 100 µM each time.

Regarding `COc1ccccc1N=Nc1c(O)c(S(=O)(=O)O)cc2cc(S(=O)(=O)O)ccc12`, the TGI with CCRF-CEM leukemia, in the assay with HCT-116 colon, with HOP-62 NSCLC, in the assay with MALME-3M melanoma, in the assay on MDA-MB-231 breast and in the assay with NCI-H226 lung was > 100 µM each time. For the same compound, the TGI with SK-MEL-2 melanoma, in the assay with SK-OV-3 ovarian, in the assay on SW-620 colon and with UACC-257 melanoma was > 100 µM throughout.

Regarding `CC(=O)OC12c3ccccc3C(c3ccccc31)C1C(=O)N(c3ccccn3)C(=O)C12` (stereo unspecified), the TGI with CCRF-CEM leukemia, in the assay with HCT-116 colon, with HOP-62 NSCLC, in the assay on MALME-3M melanoma, with MDA-MB-231 breast and in the assay with NCI-H226 lung was > 100 µM each time. The TGI with SF-539 CNS, with SK-OV-3 ovarian, with SW-620 colon and in the assay with UACC-257 melanoma was > 100 µM in each case.

Regarding `[O-][n+]1c(CN2CCCCC2)nc2cccc3c2c1-c1ccccc1-3`, the TGI worked out at 38.7 µM in the assay with HCT-116 colon; 48.6 µM in the assay on HOP-62 NSCLC; 29 µM in the assay on MALME-3M melanoma; 95.6 µM in the assay with MDA-MB-231 breast; 39.8 µM with NCI-H226 lung; 46 µM with NCI-H460 lung. For the same compound, the TGI in the assay on SF-539 CNS was 88.4 µM; in the assay on SK-MEL-2 melanoma, 43.7 µM; with SK-OV-3 ovarian, 92.5 µM; in the assay with SW-620 colon, > 100 µM; in the assay on UACC-257 melanoma, 39.4 µM.
